From patent publication US9751919B2, “Antimicrobial compositions comprising a hyaluronic acid binding peptide and a β-lactam antibiotic” (priority 2012, dated 2017) come the findings set out here.

Several values for one entry are separate records, joined by “and”; a condition that tells them apart may be missing. Equal values may be shown once. Read-outs that look alike come from different tables or passages of the source.

One test relates to E. coli. The test is described as follows: MIC (CLSI broth dilution), agent alone. To be noted: for MIC: agent alone. The class given is cell-based, Escherichia coli. The procedure, abridged:
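E. coli strain 69717 was tested by CLSI 2005 broth macrodilution in cation-adjusted Mueller-Hinton broth with doubling dilutions. The inoculum was about 5×10^5 CFU/ml, incubated 24 h in ambient air. MIC is the lowest concentration preventing visible growth.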

Test [1] has as its system MRSA, VISA, VRSA and E. coli. Briefly: Checkerboard assay, panel statement. The class given is cell-based. The method, then:
Checkerboard assays were carried out as described by Bonapace et al.
Diagnostic Microbiology and Infectious Diseases 2002; 44:363-366. In brief, checkerboard assays were performed in 96 well microtitre trays using an 8-by-8 well configuration. […] 96-well custom designed microtitre plates contained 100 ul/well of cation adjusted Mueller-Hinton broth (eg. for Enterobacteriaceae) with or without lysed horse blood (2-5% V/V) [eg. for S. pneumoniae] and were inoculated to achieve a final concentration of approximately 5×10^5 CFU/ml and incubated in ambient air for 24 hours prior to reading. Colony counts were performed periodically to confirm inocula. Quality control was performed every two weeks using a variety of ATCC QC organisms including; S. pneumoniae 49619, S. aureus 29213, E. faecalis 29212, E. coli 25922 and P. aeruginosa 27853. […] All peptides were assessed for synergy with β-lactams and vancomycin. For all antimicrobials as well as the peptides, CLSI criteria were used.
(§1) The fractional inhibitory concentration index (FIC index) was used to interpret synergy, antagonism or additivity/indifference. FIC index=FIC of drug A+FIC of drug B where:
The FIC of drug A and drug B was calculated as follows, FIC drug A=MIC of drug A in combination/MIC of drug A alone and FIC of drug B=MIC of drug B in combination/MIC of drug B alone. Synergy was defined as FIC index ≦0.5, additivity/indifference defined as a FIC between 0.5 and 4 and antagonism defined as an FIC index >4.
The fractional inhibitory concentration index (FIC index) was used to interpret synergy, antagonism or additivity/indifference. FIC index=FIC of drug A+FIC of drug B where the FIC of drug A and drug B was calculated as follows, FIC drug A=MIC of drug A in combination/MIC of drug A alone and FIC of drug B=MIC of drug B in combination/MIC of drug B alone. Synergy was defined as FIC index ≦0.5, additivity/indifference defined as an FIC of between 0.5 and 4 and antagonism defined as an FIC index >4.

Another test relates to K. pneumoniae. Briefly: Checkerboard assay (FIC index). To be noted: antibiotic combined with PEP35. The class given is cell-based, Klebsiella pneumoniae. The method, then: (§2) The checkerboard assays were carried out as described by Eliopoulos and Moellering (Chapter 9) in Antibiotic in Laboratory Medicine, Lorian Ed. 1996 as well as Bonapace et al. Diagnostic Microbiology and Infectious Diseases 2002; 44:363-366 and Bonapace et al. Diagnostic Microbiology and Infectious Diseases 2000; 38:43-50. In brief, checkerboard assays were performed in 96 well microtitre trays using an 8-by-8 well configuration. […] 96-well custom designed microtitre plates contained 100 ul/well of cation adjusted Mueller-Hinton broth (eg. for Enterobacteriaceae) with or without lysed horse blood (2-5% V/V) [eg. for S. pneumoniae] and were inoculated to achieve a final concentration of approximately 5×10^5 CFU/ml and incubated in ambient air for 24 hours prior to reading. Colony counts were performed periodically to confirm inocula. Quality control was performed every two weeks using a variety of ATCC QC organisms including; S. pneumoniae 49619, S. aureus 29213, E. faecalis 29212, E. coli 25922 and P. aeruginosa 27853. For all antimicrobials as well as PEP35, CLSI criteria was used.
as §1
(§3) The FIC of drug A and drug B is calculated as follows, FIC drug A=MIC of drug A in combination/MIC of drug A alone and FIC of drug B=MIC of drug B in combination/MIC of drug B alone. Synergy is defined as FIC index ≦0.5, additivity/indifference FIC >0.5-4 and antagonism FIC index >4.
(§4) Antimicrobials used included PEP35, cefazolin, ceftriaxone, vancomycin, linezolid, tigecycline and daptomycin versus Gram-positive cocci and PEP35, gentamicin, levofloxacin, piperacillin/tazobactam, meropenem and colistin (Polymyxin E) versus Gram-negative bacilli. These agents were obtained as laboratory grade powders from their respective manufacturers. Stock solutions were prepared and dilutions made as described by the Clinical Laboratory Standards Institute (2005 CLSI).
(§5) Organisms included Gram-positive cocci (2 strains of each): Methicillin-susceptible Staphylococcus aureus (MSSA), community-associated (CA) and healthcare-associated (HA) methicillin-resistant Staphylococcus aureus (MRSA), vancomycin-intermediate Staphylococcus aureus (VISA), vancomycin-resistant Staphylococcus aureus (VRSA), methicillin-resistant Staphylococcus epidermidis (MRSE), Streptococcus pyogenes, Streptococcus agalactiae, Streptococcus pneumoniae, Enterococcus faecalis, Enterococcus faecium and vancomycin-resistant enterococcus (VRE). Gram-negative bacilli tested (2 strains of each) included: E. coli, Pseudomonas aeruginosa, Klebsiella pneumoniae, K. oxytoca, Enterobacter cloacae, P. mirabilis and Stenotrophomonas maltophilia. MIC testing, following two subcultures from frozen stock were determined by the CLSI 2005 approved broth microdilution method.

Another test relates to K. oxytoca. The test is described as follows: Checkerboard assay (FIC index). The test is classed as cell-based, Klebsiella oxytoca. To be noted: antibiotic combined with PEP35. How it is done: as §2, §1, §3, §4, §5
Where [2] appears, read: with cefazolin and ceftriaxone, versus CA-MRSA, HA-MRSA, VISA and VRSA.
Where [3] appears, read: with meropenem versus CA-MRSA, HA-MRSA, and VISA.

For “LKQKIKHVVKLKVVVKLRSQLVKRKQN (listed as Mus sp.) [PEP35]”, the MIC with E. coli (E. coli 69716, in µg/mL) turned out to be 128; in the test with E. coli (E. coli 70752, in µg/mL), 128; in the test with E. coli (E. coli control), 64 µg/mL. Further, the “PEP35 (MIC)” value in the test on E. coli (E. coli, peptide alone) was 64 µg/mL. The “synergy (in words)” value in test [1] (setting [2]) and in test [1] (setting [3]) was “synergistic effect” each time.

With “KKKKKLQLQLNLIKKKVQVSVVVVRRH (Reordered human peptide sequence) [Scrambled PEP35]”, the MIC with E. coli (E. coli 69716, in µg/mL) was 8; with E. coli (E. coli 70752, in µg/mL), 8. Moreover, in the test with E. coli (vs E. coli), the “activity (in words)” value was “active”. The “synergy (in words)” value in test [1] (setting [2]) and in test [1] (setting [3]) was “synergistic effect” in each case.

piperacillin/tazobactam: the MIC with E. coli (E. coli 69716, in µg/mL) is 2; with E. coli (E. coli 69716, listed as Piperacillin-Tazobactam, in µg/mL), 4 and 2; with E. coli (E. coli 70752), 4/4; with E. coli (E. coli 70752, in µg/mL), 8. The “Avg ΣFIC (range)” value in the test on K. pneumoniae (K. pneumoniae 70508) is reported as 0.93 (0.62-1.12); with K. pneumoniae (K. pneumoniae 77081), 1.05 (0.75-1.25); in the test with K. oxytoca (K. oxytoca 75316) it was 0.93 (0.62-1.12); in the test with K. oxytoca (K. oxytoca 76874) it was 0.83 (0.53-1.12).

Take `Cc1nnc(SCC2=C(C(=O)O)N3C(=O)[C@@H](NC(=O)Cn4cnnn4)[C@H]3SC2)s1` [Cefazolin]: the MIC turned out to be 2 with E. coli (E. coli 69716, in µg/mL); 128 in the test on E. coli (E. coli 70752, in µg/mL); 2 µg/mL with E. coli (Escherichia coli, E. coli control, read-out: MIC). Moreover, in the test on E. coli (E. coli, antibiotic alone, two values in cell), the “Cefazolin (MIC)” value is 2/2.

Consider `C[C@@H](O)[C@H]1C(=O)N2C(C(=O)O)=C(S[C@@H]3CN[C@H](C(=O)N(C)C)C3)[C@H](C)[C@H]12` [Meropenem], for which the MIC in the test with E. coli (E. coli 69716, in µg/mL) worked out at 0.03; with E. coli (E. coli 70752, in µg/mL), 0.03. The “Avg ΣFIC (range)” value with K. pneumoniae (K. pneumoniae 70508) is listed as 1.19 (1.03-1.5); with K. pneumoniae (K. pneumoniae 77081), 1.21 (1.03-1.5); in the test with K. oxytoca (K. oxytoca 75316), 1.1 (1.0-1.25); with K. oxytoca (K. oxytoca 76874), 0.80 (0.53-1.12).
